Measured values: publication PMC6403800 (Polymers, 2018)
Like-named read-outs stand apart in the source and are kept apart here. Peptide text beside a SMILES is read from it.

Legend:
[1] = molecular target: T1, α-hemolysin (α-HL) nanopore (Staphylococcus aureus, UniProt P09616); test: biochemical; format: binding; conditions: for kon: extrapolated to ΔV→0 by fit kon(ΔV)=kon(0)exp(aΔV)
[2] = molecular target: T1, α-hemolysin (α-HL) nanopore

T1 sequence (P09616 27-319 limits assumed): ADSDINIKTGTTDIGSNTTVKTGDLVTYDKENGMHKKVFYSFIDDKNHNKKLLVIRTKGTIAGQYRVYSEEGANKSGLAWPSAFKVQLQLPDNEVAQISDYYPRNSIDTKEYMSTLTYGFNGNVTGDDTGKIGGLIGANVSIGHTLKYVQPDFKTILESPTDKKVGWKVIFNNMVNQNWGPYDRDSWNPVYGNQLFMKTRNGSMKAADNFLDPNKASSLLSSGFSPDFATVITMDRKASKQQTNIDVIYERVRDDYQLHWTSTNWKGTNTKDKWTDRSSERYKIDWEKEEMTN

`CC(=O)N[C@@H](CCCNC(=N)N)C(=O)N[C@@H](CCCNC(=N)N)C(=O)N[C@@H](CCCNC(=N)N)C(=O)N[C@@H](CCCNC(=N)N)C(=O)N[C@@H](CCCNC(=N)N)C(=O)N[C@@H](CCCNC(=N)N)C(=O)N[C@@H](CCCNC(=N)N)C(=O)N[C@@H](CCCNC(=N)N)C(=O)N[C@@H](CCCNC(=N)N)C(=O)N[C@@H](CCCNC(=N)N)C(=O)N[C@@H](CCCNC(=N)N)C(=O)N[C@@H](CCCNC(=N)N)C(=O)N[C@@H](CO)C(=O)N[C@@H](CO)C(=O)N[C@@H](CO)C(=O)N[C@@H](CO)C(=O)N[C@@H](CO)C(=O)N[C@@H](CO)C(=O)N[C@@H](CCC(=O)O)C(=O)N[C@@H](CCC(=O)O)C(=O)N[C@@H](CCC(=O)O)C(=O)N[C@@H](CCC(=O)O)C(=O)N[C@@H](CCC(=O)O)C(=O)N[C@@H](CCC(=O)O)C(=O)N[C@@H](CCC(=O)O)C(=O)N[C@@H](CCC(=O)O)C(=O)N[C@@H](CCC(=O)O)C(=O)N[C@@H](CCC(=O)O)C(=O)N[C@@H](CCC(=O)O)C(=O)N[C@@H](CCC(=O)O)C(N)=O` [Pe6, Ac–(R)12–(S)6–(E)12–NH2] (Ac-RRRRRRRRRRRRSSSSSSEEEEEEEEEEEE-NH2) was tested, and the “dissociation rate, cis vs trans entry with preserved axial orientation, in words” value ([1]; at +ΔV (Figure 7a,d) and at −ΔV (Figure 7b,c), 30 μM) was “within the same order of magnitude”, the “dissociation, comparison of polarity in words” value ([1]; cis-added, +ΔV vs −ΔV (Figure 7c,d), 30 μM) was “dissociates faster at +ΔVs (Figure 7d) than −ΔVs” and the “association rates trans vs cis side, in words” value ([1]; high voltages (|ΔV| > 100 mV), 30 μM) was “the association rates from the trans side are, in general, larger than peptide association from the cis side”. The “association rate kon, ranking by addition side and voltage polarity” value ([1]; high voltages (|ΔV| > 100 mV), 30 μM peptide, cis or trans addition) was “koncis;−ΔV<koncis;+ΔV<kontrans;+ΔV<kontrans;−ΔV”, the kon ([1]; pH 7, read-out: near equilibrium association rate constant kon(0), cis-added, +ΔV, 30 μM peptide, 2 M KCl, 10 mM HEPES, pH 7, ~23 °C) was 63 ± 35.1 M⁻¹ s⁻¹ and the kon ([1]; pH 7, read-out: near equilibrium association rate constant kon(0), cis-added, −ΔV, 30 μM peptide, 2 M KCl, 10 mM HEPES, pH 7, ~23 °C) was 26.1 ± 8.9 M⁻¹ s⁻¹. For the same compound, the kon ([1]; pH 7, read-out: near equilibrium association rate constant kon(0), trans-added, +ΔV, 30 μM peptide, 2 M KCl, 10 mM HEPES, pH 7, ~23 °C) was 83500 M⁻¹ s⁻¹, the kon ([1]; pH 7, read-out: near equilibrium association rate constant kon(0), trans-added, −ΔV, 30 μM peptide, 2 M KCl, 10 mM HEPES, pH 7, ~23 °C) was 1200 M⁻¹ s⁻¹ and the “dissociation rate constant koff, comparison of polarity in words” value ([1]; trans-added, +ΔV vs −ΔV (Figure 7a,b), 30 μM) was “larger at +ΔVs than at −ΔVs”. For the same compound, the “association rate constant kon, comparison in words” value ([1]; trans-added, Pe6 vs Pe4, voltage-dependent (Figure 4a,c), 2 M KCl, 10 mM HEPES, pH 7, ~23 °C) was “almost one order of magnitude larger than that of the isoleucine-containing peptide (Pe4)”, the “trapping time inside α-HL, comparison in words” value ([1]; trans-added, as the positive voltage increases (+80, +90, +100 mV), Pe6 vs Pe4, 2 M KCl, pH 7) was “being trapped longer than Pe4 peptide inside the α-HL, as the voltage increases” and the “association rate, comparison of polarity in words” value ([1]; trans-added, relatively low transmembrane potential values (Figure 6a,b insets), 30 μM) was “associate faster to the nanopore at +ΔVs (Figure 6a, inset) than −ΔV s”. The “near equilibrium kon(0), ranking by addition side and voltage polarity” value ([1]; ΔV→0, cis or trans addition, 30 μM peptide) was “koncis;−ΔV(0)<koncis;+ΔV(0)<kontrans;−ΔV(0)<kontrans;+ΔV(0)”, the “relative blockade extent ΔIblock,1/Iopen (residual current I1)” value ([2]; deeper blockade sub-state I1, Fig. 1: 20 µM trans-added, ΔV = +100 mV, 2 M KCl, 10 mM HEPES, pH 7, ~23 °C, kind of spread not stated) was 0.91 ± 0.003 and the “relative blockade extent ΔIblock,2/Iopen (residual current I2)” value ([2]; shallower blockade sub-state I2, Fig. 1: 20 µM trans-added, ΔV = +100 mV, 2 M KCl, 10 mM HEPES, pH 7, ~23 °C, kind of spread not stated) was 0.83 ± 0.002.
For Ac–(R)12–(I)6–(E)12–NH2 [Pe4], the “dissociation rate constant koff, comparison in words” value ([1]; pH 7) was “slightly faster dissociation step”, the “relative blockade extent ΔIblock,1/Iopen, comparison in words” value [2] was “slightly higher extent of relative blockade” and the “relative blockade extent ΔIblock,1/Iopen (residual current I1)” value ([2]; pH 7) was 0.93 ± 5.1 × 10^−4. For the same compound, the “relative blockade extent ΔIblock,2/Iopen (residual current I2)” value ([2]; pH 7) was 0.83 ± 0.004.
